{"source": "patent EP0811378A1", "about": "“PREVENTIVE/REMEDY FOR INTERSTITIAL PNEUMONIA, INFLAMMATORY INTESTINAL DISEASES OR VASCULAR THICKENING CONTAINING QUINOLIZINONE COMPOUNDS, SALT THEREOF OR HYDRATES THEREFOR” (priority 1995, dated 1996)", "key": {"[1]": {"tested_on": "silica-induced pulmonary fibrosis", "assay": "Efficacy in a mouse model of silica-induced pulmonary fibrosis", "type": "in vivo, C57BL/6 mice", "conditions": "for Hydroxyproline content: lungs isolated 16 days after silica, Mean ± SE", "description": "Using C57BL/6 mice (8 weeks old, male gender), the neck was incised under pentobarbital anesthesia and silica (2 mg/0.1 ml/animal) was administered intra-tracheally. A sham operated intact group received physiological saline in the same manner. The drug was orally administered daily beginning the day of silica treatment till the day immediately preceding sacrifice. Thus, test compound 1 and tranilast were respectively administered once after silica treatment and twice daily on the next and subsequent days, in morning and evening. In the sham operated and control groups, 0.5% methylcellulose was similarly administered. Sixteen (16) days after sensitization, the mice were bled to death under pentobarbital anesthesia and the lungs were isolated. The hydroxyproline content of the isolated lungs was assayed and used as an indicator of pulmonary fibrosis. The difference in mean value between the control group and the treatment group or the sham operated group was tested by one-way analysis of variance and Dunnett multiple-comparison test."}, "[2]": {"tested_on": "bleomycin-induced pulmonary fibrosis", "assay": "Efficacy in a mouse model of bleomycin-induced pulmonary fibrosis", "type": "in vivo, ICR mice", "conditions": "1 mg/kg orally twice a day, day 28", "description": "ICR mice (12 weeks old, male gender) were intravenously dosed with bleomycin (10 mg/kg) daily for 10 days. Test compound 1 was suspended in 0.5% methylcellulose solution and administered orally twice a day beginning the first day of bleomycin treatment till the day immediately preceding sacrifice. A control group received 0.5% methylcellulose solution in the like manner. Twenty-eight (28) days reckoning from administration of the initial dose of bleomycin, the mice were sacrificed, the lungs were isolated, and the lung hydroxyproline content was determined in accordance with Woessner's method. Histopathological specimens were also prepared at the same time and the degree of fibrotic change was evaluated after Azan-Mallory staining."}, "[3]": {"tested_on": "acetic acid-induced colitis", "assay": "Efficacy in a rat model of acetic acid-induced colitis", "type": "in vivo, SD rats", "conditions": "po, inhibition of lesion score, read-out: Degree of inhibition", "description": "Male SD rats (7-8 weeks old) were deprived of food for 24 hours and a suspension of test compound 2 in 0.5% methylcellulose solution was administered orally. Thirty (30) minutes later, 1 ml/rat of 4% acetic acid in saline was infused from the anus under ether anesthesia. An intact group received a saline infusion. The infusion was carried out over 20 seconds. Then, the animal was held in inverted upright position for 30 seconds, after which 2 ml of phosphate buffer solution was infused for washout. Twenty-four (24) hours later, the animal was sacrificed by carbon dioxide inhalation, the large intestine was isolated, and the local lesion was scored according to the following criteria. Lesion score 0. No lesion 1. Hyperemia without ulceration 2. Inflammation (hyperemia and thickening of the bowel wall) or ulceration without definite inflammation 3. Ulceration with inflammation at 1 site 4. Ulceration with inflammation at 2 or more sites 5. A large ulcer sized 1 cm or more 6-10. An ulcer sized 2 cm or more; 1 point added for each increment of 1 cm"}, "[4]": {"assay": "Oral acute toxicity in rats", "type": "in vivo"}}, "note": "Structures can show the parent of a compound that is named as a salt."}
{"smiles": "O=C(Nc1nnn[nH]1)c1cc(Oc2ccccc2)c2ccccn2c1=O", "note": "[Test compound 1, N-[5-(1H-tetrazolyl)]-1-phenoxy-4H-quinolizin-4-one-3-carboxamide sodium salt]", "values": [{"measurement": "Hydroxyproline content", "setting": "[1]; 1 mg/kg orally twice daily, n=10", "value": "**144.41±9.69 µg/lung"}, {"measurement": "inhibition at 1 mg/kg", "setting": "[1]; Mus musculus, po, 384 h, inhibition of lung hydroxyproline content, 1 mg/kg orally twice daily, day 16, read-out: Degree of inhibition", "value": 88.7, "unit": "%"}, {"measurement": "Histopathological examination, degree of fibrotic change", "setting": "[2]; Azan-Mallory staining", "value": "definite inhibition of pulmonary fibrosis"}, {"measurement": "inhibition at 1 mg/kg", "setting": "[2]; Mus musculus, po, 672 h, inhibition of lung hydroxyproline content, read-out: Degree of inhibition", "value": 88.6, "unit": "%"}]}
{"smiles": "O=C(Nc1nnn[nH]1)c1cc(Oc2ccccc2)c2ccccn2c1=O", "note": "[Test compound 2, N-[5-(1H-tetrazolyl)]-1-phenoxy-4H-quinolizin-4-one-3-carboxamide sodium salt monohydrate]", "values": [{"measurement": "inhibition at 1 mg/kg", "setting": "[3]; 1 mg/kg orally", "value": 38.3, "unit": "%"}, {"measurement": "inhibition at 10 mg/kg", "setting": "[3]; 10 mg/kg orally", "value": 68.1, "unit": "%"}, {"measurement": "oral acute toxicity LD50", "setting": "[4]; female gender", "value": "≥ 5", "unit": "g/kg/day"}, {"measurement": "oral acute toxicity LD50", "setting": "[4]; male gender", "value": 4.5, "unit": "g/kg/day"}]}
{"smiles": "COc1ccc(/C=C/C(=O)Nc2ccccc2C(=O)O)cc1OC", "note": "[Tranilast, reference compound]", "values": [{"measurement": "Hydroxyproline content", "setting": "[1]; 100 mg/kg orally twice daily, n=9", "value": "224.66±18.44", "unit": "µg/lung"}, {"measurement": "inhibition at 100 mg/kg", "setting": "[1]; Mus musculus, po, 384 h, inhibition of lung hydroxyproline content, 100 mg/kg orally twice daily, day 16, read-out: Degree of inhibition", "value": 13.6, "unit": "%"}]}
